These compounds were tested on HBV (assay: Viral production from HepAD38 cells, viral load by qPCR of HBV core sequence). Conditions: 5 days, supernatant HBV DNA by qPCR, read-out: Viral Load EC50 Activity range.
Type: cell-based
Outline: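 HepAD38 cells in tetracycline-free medium with 2% FBS, 50,000 cells/well, treated 5 days at 37° C. with compound from 10 μM top concentration (1% DMSO final). Supernatant HBV DNA measured by TaqMan qPCR of core sequence against standards, versus DMSO wells; viability by CellTiter-Glo; EC50/CC50 by four-parameter fit.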

**Q.** Which EC50 does the source give for `CS(=O)(=O)CC1(O)CC2CC(c3n[nH]c(N)c3C(=O)Nc3ccc(F)c(Cl)c3)CC2C1` (stereo not drawn) [AIA-310] here?
**A.** Its EC50 is under 100 nM.

**Q.** Which EC50 does the source give for `COc1cc(C(=O)NCCS(C)(=O)=O)ccc1C1CCC(c2nn(C)c(N)c2C(=O)Nc2ccc(F)c(Cl)c2)C1` (stereo not drawn) [AIA-387-2, 5-Amino-N-(3-chloro-4-fluorophenyl)-3-(3-(2-methoxy-4-((2-(methylsulfonyl)ethyl)carbamoyl)phenyl)cyclopentyl)-1-methyl-1H-pyrazole-4-carboxamide] here?
**A.** The EC50 was under 100 nM.

**Q.** For `Cn1cc(C(=O)Nc2ccc(F)c(Cl)c2)c(C2CC3CC(=O)CC3C2)n1` (stereo not drawn) [AIA-394], which EC50 is on record?
**A.** Its EC50 is 500 to 10000 nM.

**Q.** `Cn1cc(C(=O)Nc2ccc(F)c(Cl)c2)c(C2CC3CC(O)(CS(C)(=O)=O)CC3C2)n1` (stereo not drawn) [AIA-397] was tested. Which EC50 did it give?
**A.** Its EC50 is 500 to 10000 nM.

**Q.** How did the EC50 turn out when `Cn1nc(C2CC3CC4(CNC(=O)C4)CC3C2)c(C(=O)Nc2ccc(F)c(Cl)c2)c1N` (stereo not drawn) [HBV-AIA-039] was run?
**A.** The EC50 was under 100 nM.

Same assay, conditions: Hepatitis B virus, HePAD38, 120 h, 5 days, supernatant HBV DNA by qPCR, read-out: Viral Load EC50 Activity range

**Q.** How did the EC50 turn out when `COCCOc1ccc(C2CCC(c3nn(C)c(N)c3C(=O)Nc3ccc(F)c(Cl)c3)C2)cc1` (stereo not drawn) [AIA-297, 5-Amino-N-(3-chloro-4-fluorophenyl)-3-(3-(4-(2-methoxyethoxy)phenyl)cyclopentyl)-1-methyl-1H-pyrazole-4-carboxamide] was run?
**A.** The EC50 was under 100 nM.

**Q.** `Cn1nc(C2CC3CC(O)(CS(=O)(=O)CCCN4CCNC(=O)C4)CC3C2)c(C(=O)Nc2ccc(F)c(Cl)c2)c1N` (stereo not drawn) [AIA-350, 5-Amino-N-(3-chloro-4-fluorophenyl)-3-(5-hydroxy-5-(((3-(3-oxopiperazin-1-yl)propyl)sulfonyl)methyl)octahydropentalen-2-yl)-1-methyl-1H-pyrazole-4-carboxamide] was tested. Which EC50 did it give?
**A.** The EC50 was 500 to 10000 nM.

**Q.** How did the EC50 turn out when `Cn1nc([C@@H]2CC[C@@H](c3cnc(C(F)(F)F)s3)C2)c(C(=O)Nc2ccc(F)c(Cl)c2)c1N` [AIA-354, 5-Amino-N-(3-chloro-4-fluorophenyl)-1-methyl-3-((1R,3R)-3-(2-(trifluoromethyl)thiazol-5-yl)cyclopentyl)-1H-pyrazole-4-carboxamide] was run?
**A.** The EC50 was 500 to 10000 nM.

**Q.** With `Cn1nc(C2CCC(c3csc(C(F)(F)F)n3)C2)c(C(=O)Nc2ccc(F)c(Cl)c2)c1N` (stereo not drawn) [AIA-355, 5-Amino-N-(3-chloro-4-fluorophenyl)-1-methyl-3-(3-(2-(trifluoromethyl)thiazol-4-yl)cyclopentyl)-1H-pyrazole-4-carboxamide] as the compound, how does the EC50 read?
**A.** Its EC50 is 500 to 10000 nM.

**Q.** For `Cn1nc(C2CC3CC(O)(CN4CCOCC4)CC3C2)c(C(=O)Nc2ccc(F)c(Cl)c2)c1N` (stereo not drawn) [AIA-364-1, 5-Amin o-N-(3-chloro-4-fluorophenyl)-3-(5-hydroxy-5-(morpholinomethyl)octahydropentalen-2-yl)-1-methyl-1H-pyrazole-4-carboxamide], which EC50 is on record?
**A.** Its EC50 is 500 to 10000 nM.

**Q.** With `COc1cc(-c2cn(C)cn2)ccc1C1CCC(c2nn(C)c(N)c2C(=O)Nc2ccc(F)c(Cl)c2)C1` (stereo not drawn) [AIA-365-1, 5-Amino-N-(3-chloro-4-fluorophenyl)-3-(3-(2-methoxy-4-(1-methyl-1H-imidazol-4-yl)phenyl)cyclopentyl)-1-methyl-1H-pyrazole-4-carboxamide] as the compound, how does the EC50 read?
**A.** Its EC50 is 100 to 500 nM.

**Q.** With `COc1cc(-c2c[nH]cn2)ccc1C1CCC(c2nn(C)c(N)c2C(=O)Nc2ccc(F)c(Cl)c2)C1` (stereo not drawn) [AIA-366-1, 3-(3-(4-(1H-Imidazol-4-yl)-2-methoxyphenyl)cyclopentyl)-5-amino-N-(3-chloro-4-fluorophenyl)-1-methyl-1H-pyrazole-4-carboxamide] as the compound, how does the EC50 read?
**A.** Its EC50 is 100 to 500 nM.

**Q.** With `COc1cc(-c2cnn(C)c2)ccc1C1CCC(c2nn(C)c(N)c2C(=O)Nc2ccc(F)c(Cl)c2)C1` (stereo not drawn) [AIA-369, 5-Amino-N-(3-chloro-4-fluorophenyl)-3-(3-(2-methoxy-4-(1-methyl-1H-pyrazol-4-yl)phenyl)cyclopentyl)-1-methyl-1H-pyrazole-4-carboxamide] as the compound, how does the EC50 read?
**A.** The EC50 was 100 to 500 nM.

**Q.** Which EC50 does the source give for `COc1cc(-c2nccs2)ccc1C1CCC(c2nn(C)c(N)c2C(=O)Nc2ccc(F)c(Cl)c2)C1` (stereo not drawn) [AIA-371, 5-Amino-N-(3-chloro-4-fluorophenyl)-3-(3-(2-methoxy-4-(thiazol-2-yl)phenyl)cyclopentyl)-1-methyl-1H-pyrazole-4-carboxamide] here?
**A.** Its EC50 is 500 to 10000 nM.

**Q.** Which EC50 does the source give for `COc1cc(-c2cscn2)ccc1C1CCC(c2nn(C)c(N)c2C(=O)Nc2ccc(F)c(Cl)c2)C1` (stereo not drawn) [AIA-372, 5-Amino-N-(3-chloro-4-fluorophenyl)-3-(3-(2-methoxy-4-(thiazol-4-yl)phenyl)cyclopentyl)-1-methyl-1H-pyrazole-4-carboxamide] here?
**A.** Its EC50 is under 100 nM.

**Q.** How did the EC50 turn out when `COc1cc(C(=O)NCCS(C)(=O)=O)ccc1C1CCC(c2nn(C)c(N)c2C(=O)Nc2ccc(F)c(Cl)c2)C1` (stereo not drawn) [AIA-387-1] was run?
**A.** The EC50 was 100 to 500 nM.

**Q.** With `COc1cc(C(=O)NCCN)ccc1C1CCC(c2nn(C)c(N)c2C(=O)Nc2ccc(F)c(Cl)c2)C1` (stereo not drawn) [AIA-388, 5-Amino-3-(3-(4-((2-aminoethyl)carbamoyl)-2-methoxyphenyl)cyclopentyl)-N-(3-chloro-4-fluorophenyl)-1-methyl-1H-pyrazole-4-carboxamide] as the compound, how does the EC50 read?
**A.** The EC50 was 100 to 500 nM.

**Q.** With `Cn1nc(C2CCC(c3cccnc3)C2)c(C(=O)Nc2ccc(F)c(Cl)c2)c1N` (stereo not drawn) [CP-AIA-270, 5-Amino-N-(3-chloro-4-fluorophenyl)-1-methyl-3-(3-(pyridin-3-yl)cyclopentyl)-1H-pyrazole-4-carboxamide] as the compound, how does the EC50 read?
**A.** The EC50 was under 100 nM.

From patent US11560370B1, “5-membered heteroaryl carboxamide compounds for treatment of HBV” (Assembly Biosciences, Inc., priority 2018, dated 2023)
